Measurements reported in PMC5068967, “Nucleophile sensitivity of Drosophila TRPA1 underlies light-induced feeding deterrence” (eLife, 2016).

Tests used:
Drosophila TRPA1(A) = molecular target: T1, Drosophila TRPA1(A) (Drosophila melanogaster, UniProt Q7Z020); experiment: Two-electrode voltage clamp of Xenopus oocytes expressing Drosophila TRPA1(A); format: cell-based
T1 sequence (Q7Z020 1-1197): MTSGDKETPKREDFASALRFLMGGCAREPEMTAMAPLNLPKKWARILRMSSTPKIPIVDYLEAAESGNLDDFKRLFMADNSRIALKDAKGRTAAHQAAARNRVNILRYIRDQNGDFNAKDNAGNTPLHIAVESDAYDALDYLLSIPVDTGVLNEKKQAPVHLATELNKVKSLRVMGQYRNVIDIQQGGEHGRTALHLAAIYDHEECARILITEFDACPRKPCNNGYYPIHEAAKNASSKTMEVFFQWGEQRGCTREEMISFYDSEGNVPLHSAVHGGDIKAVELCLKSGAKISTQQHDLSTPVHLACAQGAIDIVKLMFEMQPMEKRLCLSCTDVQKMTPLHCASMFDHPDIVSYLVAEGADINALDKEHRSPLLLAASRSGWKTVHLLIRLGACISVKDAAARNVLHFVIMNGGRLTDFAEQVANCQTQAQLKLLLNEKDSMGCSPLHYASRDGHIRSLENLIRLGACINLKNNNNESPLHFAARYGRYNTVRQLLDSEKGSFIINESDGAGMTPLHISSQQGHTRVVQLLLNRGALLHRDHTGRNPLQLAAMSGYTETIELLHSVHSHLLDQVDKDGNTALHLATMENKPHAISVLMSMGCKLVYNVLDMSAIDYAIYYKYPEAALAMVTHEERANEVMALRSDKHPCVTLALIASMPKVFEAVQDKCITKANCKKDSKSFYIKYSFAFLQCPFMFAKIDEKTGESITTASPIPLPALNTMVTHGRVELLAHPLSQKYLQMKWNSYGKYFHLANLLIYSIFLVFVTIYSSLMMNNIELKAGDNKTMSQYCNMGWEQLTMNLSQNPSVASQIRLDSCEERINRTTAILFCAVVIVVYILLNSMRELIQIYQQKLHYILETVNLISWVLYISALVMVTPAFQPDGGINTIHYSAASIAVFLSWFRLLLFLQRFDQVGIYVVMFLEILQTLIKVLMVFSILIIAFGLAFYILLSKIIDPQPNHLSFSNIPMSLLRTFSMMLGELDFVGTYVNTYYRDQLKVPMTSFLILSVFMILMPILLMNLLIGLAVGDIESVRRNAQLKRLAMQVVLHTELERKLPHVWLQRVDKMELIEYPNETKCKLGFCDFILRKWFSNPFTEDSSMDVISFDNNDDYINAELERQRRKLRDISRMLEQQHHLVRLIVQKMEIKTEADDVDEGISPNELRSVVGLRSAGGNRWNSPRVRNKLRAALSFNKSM
Method: (§1) TRPA1-dependent currents in Xenopus laevis oocytes induced by application of chemicals and light illumination were recorded by the two-electrode voltage clamping technique (TEVC), as described previously ([Kang et al., 2010]; [Kang et al., 2012]). Briefly, ovaries were surgically prepared and subjected to digestion with 1.5 mg/ml collagenase for 1.5 hr. Subsequently, the follicular layer of the oocytes was manually removed. One day after microinjection of 50 nl of TrpA1 cRNA, oocytes were electrophysiologically examined while perfused with the recording solution (96 mM NaCl, 1 mM KCl, 1 mM MgCl2, 5 mM HEPES, pH 7.6). For UV illumination, the optical fiber terminal was mounted above the cell at a minimal distance to achieve the highest possible intensity (Figure 1—figure supplement 1c). […] For UV experiments, the initial voltage was −60 mV, and it was then changed in periods of 300 ms from −60 to +60 mV per second. […] The current was amplified with a GeneClamp 500B amplifier (Molecular Devices, CA, USA) and registered by a digitizer (Digidata 1440 A, Molecular Devices, CA, USA). Data from dose-dependence experiments were normalized with respect to 0.1 mM NMM currents recorded from the same cells, and fitted to the Hill equation using Sigmaplot12.

Drosophila TRPA1(B) = molecular target: T2, Drosophila TRPA1(B) (Drosophila melanogaster, UniProt Q7Z020); experiment: Two-electrode voltage clamp of Xenopus oocytes expressing Drosophila TRPA1(B); format: cell-based
T2 construct: expressed in transfected cells; host or cells: Xenopus laevis oocytes injected with TrpA1 cRNA
T2 sequence (Q7Z020 1-1197): T1 sequence (Q7Z020 1-1197)
Method: as §1

agTRPA1(A) = agTRPA1(A) (Anopheles gambiae, UniProt B3G3I7); experiment: Two-electrode voltage clamp of Xenopus oocytes expressing agTRPA1(A); format: cell-based; conditions: for isoform preference of activation: −60 mV, agTRPA1(A) versus agTRPA1(B)
Method: as §1

human TRPA1 (humTRPA1) = molecular target: T3, human TRPA1 (humTRPA1) (Homo sapiens, UniProt O75762); experiment: Two-electrode voltage clamp of Xenopus oocytes expressing human TRPA1; format: cell-based
T3 construct: expressed in transfected cells; host or cells: Xenopus laevis oocytes injected with TrpA1 cRNA
Method: as §1

Drosophila (WT: wcs) = experiment: Capillary feeder (Café) assay, feeding avoidance; format: in vivo, Drosophila melanogaster; design: dose or concentration left out as unconfirmed; conditions: WT flies
Method: To quantitatively evaluate the impact of UV irradiation and chemicals on feeding deterrence, the capillary feeder (Café) assay ([Ja et al., 2007]) was used with minor modifications. In particular, feeding avoidance upon UV illumination was determined using two sibling populations of 16 hr starved flies. […] Irradiance was measured as ~1.8, 4, and 57.1 mW/cm^2for UVA, UVB, and white light, respectively, using an excised piece of a vial covering the photodiode probe (S120VC, Thorlabs, NJ, USA) to simulate internal irradiation. The vials were made of polypropylene, which has a low rate of UV transmission ([Kruenate et al., 2004]), resulting in increased internal temperature, as described in Figure 1—figure supplement 3. To minimize thermal accumulation, the UV-illuminated vial was actively cooled by fan-driven air flow while the internal temperature of a separately illuminated vial was concurrently monitored. After each feeding session, the change in the level of the menisci of 30 mM sucrose solutions in three calibrated glass capillary tubes (#2920107, Marienfeld, Lauda-Königshofen, Germany, 15 mm/μl) was measured. Following measurement of the evaporated volume obtained from vials without flies, the distance readings were converted to volume measurements. […]

[1] = test system: bitter-sensing neurons in i-bristles; experiment: Extracellular single sensillum recording from labellum i-bristles; format: in vivo, Drosophila melanogaster; conditions: for effect of pre-application on UV-evoked action potentials: i-a bristles, applied via the recording electrode, concentrations below those eliciting fast activation
Method: In vivo taste cell recordings were performed as detailed previously ([Kang et al., 2012]). Briefly, bristles were identified based on the previously described sensillum map of the labellum ([Weiss et al., 2011]; [Tanimura et al., 2009]). […] Tricholine citrate (TCC) at 30 mM was used as an electrolyte in the glass recording electrodes. Chemicals were solubilized in the electrolyte solution, and then applied to taste neurons. Spiking frequencies to chemicals were calculated for entire recordings except for H2O2 recording in L bristles, for which spiking frequencies were calcuclated from the first 10 s. […] For the first 20 s of UV response recordings, the basal activity of neurons in the bristle was monitored, after which time UV illumination was administered to the sensilla for 20 s using optical fiber-coupled UV LEDs (FCS-0295–000, Mightex, CA, and UVTOP295, Qphotonics, MI, USA for UVB at 295 nm and M365FP1, Thorlabs, USA for UVA at 365 nm) controlled by an SLA-series two-channel LED driver (SLA-0100–2, Mightex) and a T-Cube LED driver (LEDD1B, Thorlab, USA), respectively. The maximal optical fiber output of 295 nm UV was 0.063 mWusing a ball-lens type LED and that of 365 nm UV was 0.3 mW. These net power outputs at the tip of the optical fiber were measured with a photodiode sensor (S120VC, Thorlabs, NJ, USA) connected to a digital console (PM100D, Thorlabs, NJ, USA). Illumination intensity was calculated by considering the size of illuminated area derived from the numerical aperture (NA) values of the optical fibers and the distance to the samples. Due to the complex shape of fly taste bristles on the labellum and various illumination angles between the light beam and tissue, we simplified the calculation by postulating a 45° angle and oval illumination area at a distance (Figure 1—figure supplement 1d). For oocytes, circular areas were calculated (Figure 1—figure supplement 1e). Blue and green light illumination was accomplished using a GFP or RFP excitation filter (470 or 540 nm with a bandpath of 50, respectively) equipped with a typical fluorescence microscope. The UV filter for experiments with white light consisted of glass deposited with nanolayers of titanium dioxide (custom-made, Seoul Precision Optics, Seoul, Korea). Flies prepared for sensillum recording in response to light were used once to record from a single bristle, in order to test only naïve cells. The reference electrode containing hemolymph-like solution 3.1 (HL3.1) ([Feng et al., 2009]) was inserted close to the labella taste neuron cell bodies from the back of the fly thorax, which held the proboscis in an extended configuration in order to minimize electrical noise stemming from movement of the live animal. Tasteprobe (Syntech, Netherlands) was used as a preamplifier to register the action potentials from the neurons, which were digitized with Powerlab (ADI instruments, Australia). The obtained spiking frequencies were analyzed by Labchart (ADI instruments, Australia). Non-responding bristles were re-tested with other agonists that activate the same neurons as indicated in the main text (Figure 1—figure supplement 2 and Figure 3—figure supplement 1).

TRPA1(A)C105A = experiment: Two-electrode voltage clamp of Xenopus oocytes expressing TRPA1(A)C105A; format: cell-based, Drosophila melanogaster
Method: as §1

TRPA1(A)R113A/R116A = experiment: Two-electrode voltage clamp of Xenopus oocytes expressing TRPA1(A)R113A/R116A; format: cell-based, Drosophila melanogaster
Method: as §1

mouse TRPA1 = conditions: extracellular Ca2+ required; ref Andersson et al., 2008; cited from earlier work
agTRPA1(B) = experiment: Two-electrode voltage clamp of Xenopus oocytes expressing agTRPA1(B); format: cell-based, Anopheles gambiae; conditions: 0.1 mM APS
Method: as §1

Chain of agTRPA1(A) (B3G3I7 entry or part of it): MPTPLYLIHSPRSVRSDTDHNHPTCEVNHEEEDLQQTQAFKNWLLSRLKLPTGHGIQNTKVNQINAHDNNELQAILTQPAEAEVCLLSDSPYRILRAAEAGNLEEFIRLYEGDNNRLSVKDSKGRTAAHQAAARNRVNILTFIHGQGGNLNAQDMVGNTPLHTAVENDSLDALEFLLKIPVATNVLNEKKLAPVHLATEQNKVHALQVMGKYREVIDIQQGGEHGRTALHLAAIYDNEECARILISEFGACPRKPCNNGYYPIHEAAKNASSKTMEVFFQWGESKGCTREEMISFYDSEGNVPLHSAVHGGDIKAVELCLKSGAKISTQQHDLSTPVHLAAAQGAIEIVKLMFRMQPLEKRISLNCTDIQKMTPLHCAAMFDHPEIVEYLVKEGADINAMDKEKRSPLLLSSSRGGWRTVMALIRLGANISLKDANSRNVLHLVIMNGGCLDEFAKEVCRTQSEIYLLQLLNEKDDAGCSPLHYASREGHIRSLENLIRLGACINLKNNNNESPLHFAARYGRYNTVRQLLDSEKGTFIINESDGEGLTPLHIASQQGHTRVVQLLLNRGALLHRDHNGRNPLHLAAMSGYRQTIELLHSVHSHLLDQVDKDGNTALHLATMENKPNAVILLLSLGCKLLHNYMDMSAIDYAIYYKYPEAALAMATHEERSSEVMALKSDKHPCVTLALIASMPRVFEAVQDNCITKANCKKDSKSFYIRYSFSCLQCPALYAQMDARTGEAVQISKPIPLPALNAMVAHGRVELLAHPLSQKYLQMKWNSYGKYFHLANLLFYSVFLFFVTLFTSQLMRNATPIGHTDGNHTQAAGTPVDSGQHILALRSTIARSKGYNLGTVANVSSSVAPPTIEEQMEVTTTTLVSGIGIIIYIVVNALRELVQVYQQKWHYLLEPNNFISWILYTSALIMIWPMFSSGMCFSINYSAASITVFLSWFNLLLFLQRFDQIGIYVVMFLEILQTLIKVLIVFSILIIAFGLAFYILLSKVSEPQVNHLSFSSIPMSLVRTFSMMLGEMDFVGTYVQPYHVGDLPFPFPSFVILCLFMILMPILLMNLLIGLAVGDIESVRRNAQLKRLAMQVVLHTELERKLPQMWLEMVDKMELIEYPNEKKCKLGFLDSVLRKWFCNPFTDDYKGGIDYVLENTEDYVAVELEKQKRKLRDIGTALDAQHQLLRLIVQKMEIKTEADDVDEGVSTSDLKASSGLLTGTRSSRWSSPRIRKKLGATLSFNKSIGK
T3 sequence (O75762 whole entry): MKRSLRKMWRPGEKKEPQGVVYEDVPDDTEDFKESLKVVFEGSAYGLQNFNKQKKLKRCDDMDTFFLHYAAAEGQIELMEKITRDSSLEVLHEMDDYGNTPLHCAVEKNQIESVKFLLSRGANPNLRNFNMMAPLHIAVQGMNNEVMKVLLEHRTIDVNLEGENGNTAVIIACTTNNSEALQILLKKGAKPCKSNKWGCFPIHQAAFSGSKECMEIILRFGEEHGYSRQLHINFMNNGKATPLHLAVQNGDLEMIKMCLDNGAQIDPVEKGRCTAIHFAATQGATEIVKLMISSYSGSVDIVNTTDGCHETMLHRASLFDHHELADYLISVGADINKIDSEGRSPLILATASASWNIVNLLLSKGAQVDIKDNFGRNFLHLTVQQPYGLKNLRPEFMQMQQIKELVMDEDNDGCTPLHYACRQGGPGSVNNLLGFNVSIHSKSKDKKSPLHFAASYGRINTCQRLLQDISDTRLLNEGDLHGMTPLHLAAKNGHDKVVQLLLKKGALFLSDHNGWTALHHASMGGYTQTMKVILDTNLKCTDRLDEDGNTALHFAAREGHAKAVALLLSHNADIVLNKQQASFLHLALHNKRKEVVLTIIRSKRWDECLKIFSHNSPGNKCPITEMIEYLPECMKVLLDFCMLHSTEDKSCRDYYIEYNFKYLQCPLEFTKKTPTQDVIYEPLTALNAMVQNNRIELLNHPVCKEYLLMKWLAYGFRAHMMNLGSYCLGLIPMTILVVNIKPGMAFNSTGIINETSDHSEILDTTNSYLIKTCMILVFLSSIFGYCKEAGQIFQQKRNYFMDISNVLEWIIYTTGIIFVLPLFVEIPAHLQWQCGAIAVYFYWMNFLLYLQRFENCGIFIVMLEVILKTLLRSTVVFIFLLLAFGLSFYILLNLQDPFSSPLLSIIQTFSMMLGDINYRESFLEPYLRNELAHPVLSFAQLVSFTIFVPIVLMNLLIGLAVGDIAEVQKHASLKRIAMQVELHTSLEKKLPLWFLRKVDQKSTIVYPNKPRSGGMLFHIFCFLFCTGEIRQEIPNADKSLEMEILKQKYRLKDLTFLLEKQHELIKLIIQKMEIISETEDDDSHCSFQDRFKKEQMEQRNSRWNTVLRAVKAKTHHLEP

**Q.** With `OO` [H2O2, hydrogen peroxide] as the compound, how does the EC50 (Drosophila TRPA1(A)) read?
**A.** 5 ± 0.8 µM

**Q.** And the “lowest concentration that readily activates the channel” value (Drosophila TRPA1(A); Xenopus oocytes, 'as low as')?
**A.** 100 nM

**Q.** And the Emax (Drosophila TRPA1(A); read-out: average maximal current amplitude relative to NMM responses)?
**A.** ~30%

**Q.** What about the EC50 (Drosophila TRPA1(B)) of the same compound?
**A.** 900 ± 200 µM

**Q.** What about the EC50 (agTRPA1(A)) of the same compound?
**A.** 1700 ± 300 nM

**Q.** What about the “NMM-normalized peak current amplitude relative to Drosophila TRPA1(A)” value (agTRPA1(A); Xenopus oocytes) of the same compound?
**A.** ~ 5 times

**Q.** And the “H2O2 current response” value (human TRPA1 (humTRPA1))?
**A.** remarkably reduced responses to H2O2

**Q.** What about the “feeding avoidance” value (Drosophila (WT: wcs)) of the same compound?
**A.** increasingly avoided ingestion of H2O2-containing food

**Q.** And the “spiking response of bitter-sensing neurons” value ([1]; 100 mM H2O2, required the TrpA1 gene)?
**A.** robust spiking response

**Q.** What about the “H2O2 current response” value (TRPA1(A)C105A) of the same compound?
**A.** remarkably reduced responses to H2O2

**Q.** What about the “H2O2 current response” value (TRPA1(A)R113A/R116A) of the same compound?
**A.** remarkably reduced responses to H2O2

**Q.** And the EC50 (mouse TRPA1)?
**A.** ~230 µM

**Q.** Which “channel activation” value (agTRPA1(A); 0.1 mM APS, mixture 0.01 mM TEMED and 0.1 mM APS, from 30 min after mixing) does the source give for `N.N.O=S(=O)(O)OOS(=O)(=O)O` [APS, ammonium persulfate] here?
**A.** activated agTPRA1(A)

**Q.** What about the “channel activation” value (agTRPA1(B)) of the same compound?
**A.** not agTRPA1(B)

**Q.** With `N#CSCc1ccccc1` [BTC, benzyl thiocyanate] as the compound, how does the “isoform preference of activation” value (agTRPA1(A); Xenopus oocytes) read?
**A.** preferentially activated agTRPA1(A) over agTRPA1(B)

**Q.** And the “effect of pre-application on UV-evoked action potentials” value [1]?
**A.** lowered the frequencies of UV-evoked action potentials

**Q.** Which “effect of pre-application on UV-evoked action potentials” value [1] does the source give for `S=C=NCc1ccccc1` [BITC, benzyl isothiocyanate] here?
**A.** lowered the frequencies of UV-evoked action potentials

**Q.** Which results are given for `O[C@@H](CS)[C@@H](O)CS` (racemic) [DTT, dithiothreitol]?
**A.** DTT current response (Drosophila TRPA1(B); Xenopus oocytes): little compared to that of TRPA1(A); EC50 (agTRPA1(A)): ~3800 nM; DTT current response (human TRPA1 (humTRPA1)): seldom showed electrophysiological responses to DTT; effect of pre-application on UV-evoked action potentials [1]: lowered the frequencies of UV-evoked action potentials; DTT responsiveness (TRPA1(A)C105A): indistinguishable from that of TRPA1(B); DTT responsiveness (TRPA1(A)R113A/R116A): indistinguishable from that of TRPA1(B)

**Q.** Which results are given for `CN1C(=O)C=CC1=O` [NMM, N-methyl maleimide]?
**A.** reversal potential of evoked current (Drosophila TRPA1(A); Xenopus oocytes, n = 7): −5.4 ± 1.0 mV; rectification: ratio of conductance at +60 mV to that at −60 mV (Drosophila TRPA1(A); net response, Xenopus oocytes, n = 4): 1.7 ± 0.3; effect on the stimulatory effect of APS/TEMED co-incubation (agTRPA1(A); NMM at 0.01 mM): abolished; feeding avoidance (Drosophila (WT: wcs)): showed NMM-dependent feeding avoidance; effect of pre-application on UV-evoked action potentials [1]: lowered the frequencies of UV-evoked action potentials

**Q.** Which “isoform preference of activation” value (agTRPA1(A); Xenopus oocytes) does the source give for `c1c[nH]cn1` [imidazole] here?
**A.** preferentially activated agTRPA1(A) over agTRPA1(B)
